PubChem BioAssay (NCI)
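All cell lines were grown in 96-well plates and treated with compound for 48 hours. At the TGI there is no net growth.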

Key:
Test in all cases: NCI tumour cell line growth inhibition, 48 h
786-0 renal = tested on: 786-0 renal
A549 NSCLC = tested on: A549 NSCLC
ACHN renal = tested on: ACHN renal
CAKI-1 renal = tested on: CAKI-1 renal
CCRF-CEM leukemia = tested on: CCRF-CEM leukemia
COLO 205 colon = tested on: COLO 205 colon
DLD-1 colon = tested on: DLD-1 colon
DMS 114 small cell lung = tested on: DMS 114 small cell lung
DMS 273 small cell lung = tested on: DMS 273 small cell lung
EKVX NSCLC = tested on: EKVX NSCLC
HCC-2998 colon = tested on: HCC-2998 colon
HCT-116 colon = tested on: HCT-116 colon
HCT-15 colon = tested on: HCT-15 colon
HL-60(TB) leukemia = tested on: HL-60(TB) leukemia
HOP-18 NSCLC = tested on: HOP-18 NSCLC
HOP-62 NSCLC = tested on: HOP-62 NSCLC
HT29 colon = tested on: HT29 colon
IGROV1 ovarian = tested on: IGROV1 ovarian
K-562 leukemia = tested on: K-562 leukemia
KM12 colon = tested on: KM12 colon
KM20L2 colon = tested on: KM20L2 colon
LOX IMVI melanoma = tested on: LOX IMVI melanoma
LXFL 529 NSCLC = tested on: LXFL 529 NSCLC
M14 melanoma = tested on: M14 melanoma
M19-MEL melanoma = tested on: M19-MEL melanoma
MALME-3M melanoma = tested on: MALME-3M melanoma
MOLT-4 leukemia = tested on: MOLT-4 leukemia
NCI-H226 lung = tested on: NCI-H226 lung
NCI-H23 lung = tested on: NCI-H23 lung
NCI-H460 lung = tested on: NCI-H460 lung
NCI-H522 lung = tested on: NCI-H522 lung
OVCAR-3 ovarian = tested on: OVCAR-3 ovarian
OVCAR-4 ovarian = tested on: OVCAR-4 ovarian
OVCAR-5 ovarian = tested on: OVCAR-5 ovarian
OVCAR-8 ovarian = tested on: OVCAR-8 ovarian
RPMI-8226 leukemia = tested on: RPMI-8226 leukemia
RXF 393 renal = tested on: RXF 393 renal
SF-268 CNS = tested on: SF-268 CNS
SF-295 CNS = tested on: SF-295 CNS
SK-MEL-2 melanoma = tested on: SK-MEL-2 melanoma
SK-MEL-28 melanoma = tested on: SK-MEL-28 melanoma
SK-MEL-5 melanoma = tested on: SK-MEL-5 melanoma
SK-OV-3 ovarian = tested on: SK-OV-3 ovarian
SN12C renal = tested on: SN12C renal
SNB-19 CNS = tested on: SNB-19 CNS
SNB-75 CNS = tested on: SNB-75 CNS
SNB-78 CNS = tested on: SNB-78 CNS
SR leukemia = tested on: SR leukemia
SW-620 colon = tested on: SW-620 colon
TK-10 renal = tested on: TK-10 renal
U251 CNS = tested on: U251 CNS
UACC-257 melanoma = tested on: UACC-257 melanoma
UACC-62 melanoma = tested on: UACC-62 melanoma
UO-31 renal = tested on: UO-31 renal
XF 498 CNS = tested on: XF 498 CNS

Compound O=C1C(Cl)C(c2ccccc2)N1n1cnc2ccccc2c1=O (stereo not given) has a TGI (786-0 renal) greater than 100 µM, a TGI (A549 NSCLC) greater than 100 µM and a TGI (ACHN renal) greater than 100 µM. For the same compound, the TGI (CAKI-1 renal) was greater than 100 µM, the TGI (CCRF-CEM leukemia) was greater than 100 µM and the TGI (COLO 205 colon) was greater than 100 µM. It also gave a TGI (DLD-1 colon) greater than 100 µM, a TGI (DMS 114 small cell lung) greater than 100 µM and a TGI (DMS 273 small cell lung) greater than 100 µM. It also gave a TGI (EKVX NSCLC) greater than 100 µM, a TGI (HCC-2998 colon) greater than 100 µM and a TGI (HCT-116 colon) greater than 100 µM. The TGI (HCT-15 colon) was greater than 100 µM, the TGI (HL-60(TB) leukemia) was greater than 100 µM and the TGI (HOP-18 NSCLC) was greater than 100 µM. The TGI (HOP-62 NSCLC) was greater than 100 µM, the TGI (HT29 colon) was greater than 100 µM and the TGI (IGROV1 ovarian) was greater than 100 µM. For the same compound, the TGI (K-562 leukemia) was greater than 100 µM, the TGI (KM12 colon) was greater than 100 µM and the TGI (KM20L2 colon) was greater than 100 µM. For the same compound, the TGI (LOX IMVI melanoma) was greater than 100 µM, the TGI (LXFL 529 NSCLC) was greater than 100 µM and the TGI (M14 melanoma) was greater than 100 µM. The TGI (M19-MEL melanoma) was greater than 100 µM, the TGI (MALME-3M melanoma) was greater than 100 µM and the TGI (MOLT-4 leukemia) was greater than 100 µM. For the same compound, the TGI (NCI-H226 lung) was greater than 100 µM, the TGI (NCI-H23 lung) was greater than 100 µM and the TGI (NCI-H460 lung) was greater than 100 µM. For the same compound, the TGI (NCI-H522 lung) was greater than 100 µM, the TGI (OVCAR-3 ovarian) was greater than 100 µM and the TGI (OVCAR-4 ovarian) was greater than 100 µM. For the same compound, the TGI (OVCAR-5 ovarian) was greater than 100 µM, the TGI (OVCAR-8 ovarian) was greater than 100 µM and the TGI (RPMI-8226 leukemia) was greater than 100 µM. For the same compound, the TGI (RXF 393 renal) was greater than 100 µM, the TGI (SF-268 CNS) was greater than 100 µM and the TGI (SF-295 CNS) was greater than 100 µM. For the same compound, the TGI (SK-MEL-2 melanoma) was greater than 100 µM, the TGI (SK-MEL-28 melanoma) was greater than 100 µM and the TGI (SK-MEL-5 melanoma) was greater than 100 µM. The TGI (SK-OV-3 ovarian) was greater than 100 µM, the TGI (SN12C renal) was greater than 100 µM and the TGI (SNB-19 CNS) was greater than 100 µM. For the same compound, the TGI (SNB-75 CNS) was 82.4 µM, the TGI (SNB-78 CNS) was greater than 100 µM and the TGI (SR leukemia) was greater than 100 µM. It also gave a TGI (SW-620 colon) greater than 100 µM, a TGI (TK-10 renal) greater than 100 µM and a TGI (U251 CNS) greater than 100 µM. For the same compound, the TGI (UACC-257 melanoma) was greater than 100 µM, the TGI (UACC-62 melanoma) was greater than 100 µM and the TGI (UO-31 renal) was greater than 100 µM. The TGI (XF 498 CNS) was greater than 100 µM.
